Test system: Spodoptera litura
Assay: Feeding index against larvae of Spodoptera litura in castor leaves =

With `C/C=C(\C)C(=O)O[C@H]1CC(=O)[C@@]2(C)CO[C@H]3[C@H]4O[C@@H]5C[C@@H](c6ccoc6)C(C)=C5[C@@]4(C)[C@H](CC(=O)OC)[C@]1(C)[C@@H]32` [3-OXOSALANNIN] the PFI was 42.9%.
`C/C=C(\C)C(=O)O[C@@H]1[C@@H]2OC[C@]3(C)[C@H](O)C[C@H](O)[C@@]4(CO[C@H](C(=O)OC)[C@H]4[C@]1(C)[C@]14O[C@@]1(C)[C@H]1C[C@@H]4O[C@@H]4OC=C[C@@]41O)[C@@H]23` [3-TIGLOYL MELIACARPIN] was tested, and the PFI was 13.3%.
Work on `CC(=O)O[C@@H]1C[C@@H](O)[C@@]2(C)[C@@H](C[C@@H](OC(C)=O)[C@@]3(C)C4=CC[C@@H](C5=C[C@@H](CC(C)C)O[C@@H]5O)[C@]4(C)C[C@@H](O)[C@@H]32)C1(C)C` [3R-ACETOXY-1R-HYDROXYAZADIRACHTOL] yielded a PFI of 4.2%.
`COC(=O)C[C@H]1[C@]2(C)C3=C(C)[C@H](c4ccoc4)C[C@H]3O[C@@H]2C(=O)[C@@H]2[C@]1(C)C(=O)C=C[C@@]2(C)C(=O)OC` [6-OXONIMBIN] showed a PFI of 42.3%.
`CC(=O)O[C@@H]1C(=O)[C@H]2C(C)(C)C(=O)C=C[C@]2(C)[C@H]2CC[C@]3(C)C(=CC[C@H]3c3ccoc3)[C@]12C` [6-OXONIMONOL] was tested, and the PFI was 44.2%.
With `C/C=C(\C)C(=O)O[C@H]1C[C@@H](OC(C)=O)[C@@]2(C(=O)OC)CO[C@H]3[C@@H](O)[C@@](C)([C@]45O[C@@]4(C)[C@H]4C[C@@H]5O[C@@H]5OC=C[C@@]54O)[C@@H]4[C@H](O)OC[C@@]14[C@@H]32` [AZADIRACHTIN H] the PFI was 30.5%.
`C/C=C(\C)C(=O)O[C@H]1C[C@@H](OC(C)=O)[C@@]2(C)CO[C@@H]3[C@@H](O)[C@@](C)([C@]45O[C@@]4(C)[C@H]4C[C@@H]5O[C@@H]5OC=C[C@@]54O)[C@H]4[C@]1(CO[C@]4(O)C(=O)OC)[C@@H]32` [AZADIRACHTIN-D] showed a PFI of 28.9%.
Work on `C/C=C(\C)C(=O)O[C@H]1C[C@@H](OC(C)=O)[C@@]2(C)CO[C@H]3[C@@H](O)[C@@](C)([C@]45O[C@@]4(C)[C@H]4C[C@@H]5O[C@@H]5OC=C[C@@]54O)[C@@H]4[C@H](O)OC[C@@]14[C@@H]32` [AZADIRACHTIN-I] yielded a PFI of 32.2%.
Compound `COC(=O)[C@H]1OC[C@]23[C@@H]1[C@](C)([C@]14O[C@@]1(C)[C@H]1C[C@@H]4O[C@@H]4OC=C[C@@]41O)[C@H](O)[C@@H]1OC[C@](C(=O)OC)([C@H](O)C[C@@H]2O)[C@H]13` [AZADIRACHTOL] has a PFI of 6.1%.
With `C/C=C(\C)C(=O)O[C@H]1C[C@@H](OC(C)=O)[C@@]2(C(=O)OC)CO[C@H]3[C@@H](O)[C@@](C)([C@]45O[C@@]4(C)[C@H]4C[C@@H]5O[C@@H]5OC=C[C@@]54O)[C@H]4[C@]1(CO[C@]4(O)C(=O)OC)[C@@H]32` [AZADIRACTIN] the PFI was 27.5%.
`CC(=O)O[C@@H]1C[C@H]2C(C)(C)C(=O)C=C[C@]2(C)[C@H]2CC[C@]3(C)C(=CC(=O)[C@H]3C3=CC(O)OC3=O)[C@@]21C` (some centres not stated) [AZADIRADIONE PP] was tested, and the PFI was 34.7%.
`CC(=O)O[C@@H]1C[C@H]2C(C)(C)C(=O)C=C[C@]2(C)[C@H]2CC[C@]3(C)C(=CC(=O)[C@H]3c3ccoc3)[C@@]21C` [AZADIRADIONE] was tested, and the PFI was 35.5%.
In the case of `CC(=O)O[C@@H]1C[C@H]2C(C)(C)C(=O)C=C[C@]2(C)[C@H]2CC[C@]3(C)C(=CC[C@H]3c3ccoc3)[C@@]21C` [AZADIRONE], the PFI is reported as 48.3%.
Compound `CC(=O)OC1=C2C(C)(C)C(=O)C=C[C@]2(C)[C@H]2CC[C@@]3(C)[C@H](c4ccoc4)C[C@H]4O[C@]43[C@]2(C)C1=O` [CEDRELONE ACETATE] has a PFI of 55%.
With `CC1(C)C(=O)[C@H]2O[C@H]2[C@@]2(C)C1=C(O)C(=O)[C@]1(C)[C@@H]2CC[C@@]2(C)[C@H](c3ccoc3)C[C@H]3O[C@]321` [CEDRELONE EPOXIDE] the PFI was 43.5%.
For `CC1(C)C(=O)C=C[C@@]2(C)C1=C(O)C(=O)[C@]1(C)[C@@H]2CC[C@@]2(C)[C@H](C3=CC(O)OC3=O)C[C@H]3O[C@]321` (some centres not stated) [CEDRELONE PP-OH], the PFI was 22.4%.
`CC1(C)C(=O)C=C[C@@]2(C)C1=C(O)C(=O)[C@]1(C)[C@@H]2CC[C@@]2(C)[C@H](C3=CO[C@@H]4O[C@H]34)C[C@H]3O[C@]321` [CEDRELONE-22-EPOXIDE] gave a PFI of 44.2%.
Work on `CC(=O)OC1=C2C(C)(C)C(=O)[C@H]3O[C@H]3[C@]2(C)[C@H]2CC[C@@]3(C)[C@H](c4ccoc4)C[C@H]4O[C@]43[C@]2(C)C1=O` [CEDRELONEEPOXIDE ACETATE] yielded a PFI of 53.2%.
In the case of `COC1=C2C(C)(C)C(=O)C=C[C@]2(C)[C@H]2CC[C@@]3(C)[C@H](c4ccoc4)C[C@H]4O[C@]43[C@]2(C)C1=O` [CEDRELONEMETHYL ETHER], the PFI is reported as 56%.
`CC1(C)C(=O)C=C[C@@]2(C)C1=C(O)C(=O)[C@]1(C)[C@@H]2CC[C@@]2(C)[C@H](c3ccoc3)C[C@H]3O[C@]321` [CEDRELONE] gave a PFI of 51.5%.
For `COC(=O)C[C@H]1[C@]2(C)C3=C(C)[C@H](c4ccoc4)C[C@H]3O[C@@H]2[C@H](O)[C@@H]2[C@]1(C)C(=O)C=C[C@@]2(C)C(=O)OC` [DEACETYLNIMBIN], the PFI was 34.7%.
Compound `C/C=C(\C)C(=O)O[C@H]1C[C@@H](O)[C@@]2(C)CO[C@H]3[C@H]4O[C@@H]5C[C@@H](c6ccoc6)C(C)=C5[C@@]4(C)[C@H](CC(=O)OC)[C@]1(C)[C@@H]32` [DESACETYL SALANNIN] has a PFI of 44.67%.
`C/C=C(\C)C(=O)O[C@H]1C[C@@H](O)[C@@]2(C)CO[C@H]3[C@H]4O[C@@H]5C[C@@H](C6=CC(O)OC6=O)C(C)=C5[C@@]4(C)[C@H](CC(=O)OC)[C@]1(C)[C@@H]32` (some centres not stated) [DESACETYL SALANNOLIDE] showed a PFI of 28.44%.
`COC(=O)C[C@H]1[C@]2(C)C3=C(C)[C@H](C4=CCOC4=O)C[C@H]3O[C@@H]2[C@H](O)[C@@H]2[C@]1(C)C(=O)C=C[C@@]2(C)C(=O)OC` [DESACETYLNIMBIN MW] showed a PFI of 35.1%.
Compound `C/C=C(\C)C(=O)O[C@H]1C[C@@H](O)[C@@]2(C)CO[C@H]3[C@H]4O[C@@H]5C[C@@H](C6=CCOC6=O)C(C)=C5[C@@]4(C)[C@H](CC(=O)OC)[C@]1(C)[C@@H]32` [DESACETYLSALANNOBUTYROLACTONE] has a PFI of 40.35%.
Work on `CC1(C)C(=O)C=C[C@@]2(C)C1=C(O)C(=O)[C@@]1(C)C3=CC[C@@H](c4ccoc4)[C@]3(C)CC[C@@H]12` [DESEPOXYCEDRELONE] yielded a PFI of 55.3%.
For `COC1=C2C(C)(C)C(=O)CC[C@]2(C)[C@H]2CC[C@@]3(C)[C@H](c4ccoc4)C[C@H]4O[C@]43[C@]2(C)C1=O` [DIHYDROCEDRELONE METHYL ETHER], the PFI was 56.5%.
Compound `CC1(C)C(=O)CC[C@@]2(C)C1=C(O)C(=O)[C@]1(C)[C@@H]2CC[C@@]2(C)[C@H](c3ccoc3)C[C@H]3O[C@]321` [DIHYDROCEDRELONE] has a PFI of 50.5%.
With `CC(=O)O[C@@H]1C[C@H]2C(C)(C)C(=O)C=C[C@]2(C)[C@H]2CC[C@@]3(C)[C@H](C4=CC(O)OC4=O)C(=O)[C@H]4O[C@]43[C@@]21C` (some centres not stated) [EPOXY AZADIRADIONE PP] the PFI was 29.4%.
Work on `CC(=O)O[C@@H]1[C@H](O)[C@H]2C(C)(C)C(=O)C=C[C@]2(C)[C@H]2CC[C@@]3(C)[C@H](c4ccoc4)C[C@H]4O[C@]43[C@]12C` [EPOXY NIMONOL] yielded a PFI of 32%.
In the case of `CC(=O)O[C@@H]1C[C@H]2C(C)(C)C(=O)C=C[C@]2(C)[C@H]2CC[C@@]3(C)[C@H](c4ccoc4)C(=O)[C@H]4O[C@]43[C@@]21C` [EPOXYAZADIRADIONE], the PFI is reported as 50.4%.
With `CC(=O)O[C@@H]1C[C@H]2C(C)(C)C(=O)C=C[C@]2(C)[C@H]2CC[C@@]3(C)[C@H](c4ccoc4)OC(=O)[C@H]4O[C@]43[C@@]21C` [GEDUNIN] the PFI was 37.3%.

From ChEMBL document CHEMBL3045786, “Insect antifeedant activity of tetranortriterpenoids from the Rutales. A perusal of structural relations” (2002)
